{"source": "patent US20200289566A1", "about": "“COMPOSITIONS FOR IMPROVING CAR-T CELL FUNCTIONALITY AND USE THEREOF” (PROSPECT CHARTERCARE RWMC, LLC D/B/A ROGER WILLIAMS MEDICAL …, priority 2017, published 2020)", "type_in_all_cases": "cell-based, human", "key": {"[1]": {"tested_on": "IL13Rα2-Fc activated IL13CAR-T cells", "test": "Activated T cell death (ATCD): flow cytometric FasL expression", "protocol": "(§1) Purified rat anti-human IL13 antibody and allophycocyanin (APC)-conjugated anti-rat antibody was used to measure IL13CAR expression. Anti-human CD3-FITC was used in certain experiments for identifying T cells. For CD4:CD8 analysis of IL13CAR-T cells, anti-human CD4-FITC and anti-human CD8-PE.Cy7 were used in CAR-T cells that were positive for IL13CAR expression. FasL expression and PD-1 expression on activated IL13CAR-T cells was measured by staining with anti-human FasL-FITC (Thermo-Fisher) anti-human PD1-FITC respectively. […]\nUntransduced or IL13CAR-T cells (1×10^6) were activated with IL13Rα2-Fc chimera at specific concentrations in 24 well plates, with or without GSK3β inhibitor (SB216763, 20 μM; Sigma, St Louis, Mo.) or added IL2 in the culture medium. […] Long-time survival of IL13CAR-T cells following GSK3β inhibition was measured by flow cytometry using live-dead gating (Sengupta et al., Immunobiology 210: 647-659, 2005). Activated T cell death (ATCD) was measured by flow cytometric reading of FasL expression (FITC; Thermo-Fisher) on activated IL13CAR-T cells.\nIL13CAR-T cells (32% CAR+) were cultured for 14 days in the presence of soluble IL13Rα2-Fc (1 μg/ml) and GSK3β inhibitor (SB216763; 20 μM) in RPMI1640 medium supplemented with 10% FBS and antibiotics, with or without added IL2. […] To confirm this phenomenon FasL expression was measured in IL13Rα2-Fc treated CAR-T cells at day 14. […]"}, "[2]": {"tested_on": "IL13Rα2-Fc activated CAR-T cells", "test": "Intranuclear β-catenin accumulation by flow cytometry", "conditions": "36-48 hours", "protocol": "as §1, with “respectively. Anti-human CD127-FITC, anti-human CD62L-PE, Anti-human CCR7-FITC anti-human CD45RO-PE and anti-human CD45RA-PE.Cy7 were used for flow cytometric measurement of T cell memory marker. Respective isotype controls or antibody controls (where applicable) were used to draw positive gates for each experiment. All antibodies were procured from either BD Biosciences or eBisociences.” for “respectively.”\nExperiments were conducted to understand the molecular mechanism of GSK3β-inhibition on activated T cell expansion. […] IL13Rα2-Fc activated CAR-T cells were treated with or without SB216763 for 36-48 hours and measured for intra-nuclear accumulation of β-catenin by flow cytometry. […]"}, "IL13CAR-T cells": {"tested_on": "IL13CAR-T cells", "test": "CFSE dilution T cell proliferation assay", "conditions": "72 hours", "protocol": "Carboxyfluorescein succinimidyl ester (CFSE; 0.5 μg/ml; Invitrogen) was used to measure T cell proliferation by flow cytometry.\nTo further understand the mechanism, CAR-T cells were stained with CFSE and were cultured either unstimulated or treated with IL13Rα2-Fc±SB216763 for 72 hours. CFSE is a fluorescent cell staining dye and can be used to monitor lymphocyte proliferation, both in vitro and in vivo, due to the progressive halving of CFSE fluorescence within daughter cells following each cell division (Lyons et al., Journal of immunological methods 171: 131-137, 1994)."}, "[3]": {"tested_on": "IL13Rα2-activated IL13CAR-T cells", "test": "Flow cytometry of T-bet and PD-1 expression", "protocol": "(§2) Purified rat anti-human IL13 antibody and allophycocyanin (APC)-conjugated anti-rat antibody was used to measure IL13CAR expression. Anti-human CD3-FITC was used in certain experiments for identifying T cells. For CD4:CD8 analysis of IL13CAR-T cells, anti-human CD4-FITC and anti-human CD8-PE.Cy7 were used in CAR-T cells that were positive for IL13CAR expression. FasL expression and PD-1 expression on activated IL13CAR-T cells was measured by staining with anti-human FasL-FITC (Thermo-Fisher) anti-human PD1-FITC respectively. Anti-human CD127-FITC, anti-human CD62L-PE, Anti-human CCR7-FITC anti-human CD45RO-PE and anti-human CD45RA-PE.Cy7 were used for flow cytometric measurement of T cell memory marker. Respective isotype controls or antibody controls (where applicable) were used to draw positive gates for each experiment. All antibodies were procured from either BD Biosciences or eBisociences. For intranuclear staining of β-catenin localization, nuclear permeabilization of CAR-T cells was achieved using FoxP3 staining buffer (eBioscience-Affymetrix, San Diego, Calif.) and staining with anti-human β-catenin rabbit mAb (Cell Signaling Technologies, Danvers Mass.) and anti-rabbit IgG conjugated with Alexa Fluor (AF) 488 or 647 (Cell Signaling Technologies).\n(§3) GSK3 inhibition reduces PD-1 mediated T cells exhaustion, which is dependent on T-bet expression (Taylor et al., Immunity 44: 274-286. 2016), and GSK3β pathway directly regulates T-bet expression in activated T cells (Verma et al., J Immunol 197: 108-118, 2016). Significant survival advantage of GSK3β inhibition in activated T cells prompted us to study T-bet and PD-1 expression in IL13Rα2-activated IL13CAR-T cells."}, "[4]": {"tested_on": "IL13Rα2-Fc activated IL13CAR-T cells", "test": "T cell survival assay (viability by flow cytometry, live-dead gating, 14 days)", "conditions": "SB216763 20 μM, IL13Rα2-Fc 1 μg/ml, absence of added IL2", "protocol": "Untransduced or IL13CAR-T cells (1×10^6) were activated with IL13Rα2-Fc chimera at specific concentrations in 24 well plates, with or without GSK3β inhibitor (SB216763, 20 μM; Sigma, St Louis, Mo.) or added IL2 in the culture medium. IL13CAR-T cell survival assays were performed as described above for 14 days. Long-time survival of IL13CAR-T cells following GSK3β inhibition was measured by flow cytometry using live-dead gating (Sengupta et al., Immunobiology 210: 647-659, 2005). Activated T cell death (ATCD) was measured by flow cytometric reading of FasL expression (FITC; Thermo-Fisher) on activated IL13CAR-T cells.\nIL13CAR-T cells (32% CAR+) were cultured for 14 days in the presence of soluble IL13Rα2-Fc (1 μg/ml) and GSK3β inhibitor (SB216763; 20 μM) in RPMI1640 medium supplemented with 10% FBS and antibiotics, with or without added IL2. Cells were harvested at days 1, 4, 7, 10 and 14 and stained for CD3 and IL13CAR expression, and viability of cells were measured by flow cytometry and analyzed for viability as described earlier. […] The loss in viability was rescued by addition of IL2 in culture conditions (FIG. 1A; Top Panel; close squares) or inhibition of GSK3β with SB216763 in absence of added IL2 (FIG. 1A; Bottom Panel; open squares). […] To confirm this phenomenon FasL expression was measured in IL13Rα2-Fc treated CAR-T cells at day 14. […]"}, "[5]": {"tested_on": "IL13Rα2-Fc activated IL13CAR-T cells", "test": "T cell memory marker expression by flow cytometry", "conditions": "7 days", "protocol": "as §2\nExperiments were conducted to test the effects of SB216763 treatment on memory generation in IL13Rα2-Fc activated IL13CAR-T populations. IL13CAR-T cells were activated with increasing concentrations of IL13Rα2-Fc (0-1 μg/ml) in the presence or absence of SB216763 for 7 days. Cell surface expression of T cell memory markers were measured by flow cytometry. Since memory generation was monitored as a functional derivative of CD8+ T cells, experiments were conducted to additionally measure the intracellular expression of IL7R (CD127) expression as a marker of CD8+ memory CAR-T cell homeostasis."}, "[6]": {"tested_on": "IL13Rα2-Fc activated IL13CAR-T cells", "test": "qPCR of TBX21, PDCD1 and IFNG genes", "conditions": "normalized to GAPDH", "protocol": "Total RNA was isolated from IL13CAR-T cells using the RNeasy Mini Kit according to the manufacturer's protocol (Qiagen). cDNA was prepared from RNA using iScript cDNA Synthesis Kit (Biorad, Carlsbad, Calif.). qPCR was performed targeting IFNG, TBX21, and PDCD1 genes using SyBR Green PCR master Mix (Applied Biosystems). CT values of target genes were normalized to that of housekeeping gene GAPDH, and relative gene expression was calculated using ΔΔCT method.\nas §3"}}, "data": [{"smiles": "Cn1cc(C2=C(c3ccc(Cl)cc3Cl)C(=O)NC2=O)c2ccccc21", "note": "[SB216763, 3-(2,4-Dichlorophenyl)-4-(1-methyl-1H-indol-3yl)-1H-pyrrole-2,5-dione]", "values": [{"measurement": "frequency of activated CAR-T cells expressing FasL", "setting": "[1]; day 14, SB216763 treated", "value": 25.3, "unit": "%"}, {"measurement": "reduction of FasL expression", "setting": "[1]; day 14, versus activated CAR-T cells not treated with the inhibitor", "value": 55, "unit": "%"}, {"measurement": "nuclear β-catenin MFI", "setting": "[2]; SB216763 treated", "value": 1618, "unit": "MFI"}, {"measurement": "increased accumulation of β-catenin in the nucleus", "setting": "[2]; versus untreated activated CAR-T cells", "value": 66, "unit": "%"}, {"measurement": "proliferation of IL13Rα2-Fc activated CAR-T cells", "setting": "IL13CAR-T cells", "value": "increased proliferation"}, {"measurement": "proliferation of unstimulated CAR-T cells", "setting": "IL13CAR-T cells", "value": "no such efforts"}, {"measurement": "T-bet expression (FACS)", "setting": "[3]; activated IL13CAR-T cells, GSK3β inhibition", "value": "significant upregulation"}, {"measurement": "frequency of PD-1+ IL13CAR-T cells", "setting": "[3]; activated, GSK3β inhibited", "value": 17.3, "unit": "%"}, {"measurement": "reduction in PD-1 expression", "setting": "[3]; versus activated IL13CAR-T cells not treated", "value": 60, "unit": "%"}, {"measurement": "loss in viability of activated IL13CAR-T cells", "setting": "[4]", "value": "rescued"}, {"measurement": "CCR7 expression", "setting": "[5]", "value": "no difference"}, {"measurement": "CD45RA expression", "setting": "[5]", "value": "no difference"}, {"measurement": "CD62L expression", "setting": "[5]", "value": "complete inhibition"}, {"measurement": "increase in CD45RO", "setting": "[5]; IL13Rα2-Fc 0-1 μg/ml", "value": 4, "unit": "fold"}, {"measurement": "increase in CD127", "setting": "[5]; IL13Rα2-Fc 0-1 μg/ml", "value": 10, "unit": "fold"}, {"measurement": "decrease in PDCD1 (PD-1) gene expression", "setting": "[6]", "value": 5, "unit": "fold"}, {"measurement": "increase in TBX21 (T-bet) gene expression", "setting": "[6]", "value": 90, "unit": "fold"}]}]}
